In assay [1] the test system is BKPyV. Description: Fluorescence focus unit (FFU) assay of infectious BKPyV from treated RPTE/TERT1 cells. The class given is cell-based, BK polyomavirus. The following applies: for reduction in infectious virus production: BKPyV MOI 1. How it is done: (B) Effect of PF-9366 on viral replication: Cells were infected with BKPyV (MOI 1) in media containing appropriate drug concentrations. At 1 hpi infectious media was removed, cells were washed and fresh media with appropriate drug concentrations was added. At 48 hpi cells were harvested and infectious BKPyV was measured by FFU assay. n=3.
(§1) Cells were treated with MAT2A inhibitors at 1 hr post infection and were harvested at 48 hr post infection at MOI 1. (A) Total infectious BKPyV synthesis expressed as fold change to DMSO control (FFU titre assay). (B) Total viral protein expression (LTAg and VP1) was analysed by western blot. Tubulin was used as loading control. All error bars represent SEM. Two sample paired T-test was used to determine significance (*p<0.05; **p<0.01; ***p<0.001, ****p<0.0001), all numerical data shown were obtained over 2 independent experiments.
(§2) RPTE/hTERT cells were treated with inhibitors at 1 hr post infection (PI), infected at MOI 1. (A) Viral growth curves using FFU titre assay in drug treated and untreated cells infected with BKPyV at MOI 1 for 48 hr PI, 72 hr PI and 96 hr PI. (B) Total viral protein expression (LTAg and VP1) from drug treatments and untreated control was analysed by western blot with samples harvested at 48 hr PI and 96 hr PI. Tubulin was used as loading control. All error bars represent SEM. All numerical data shown were obtained over 2 independent experiments.
The ability for PF-9366 to inhibit the production of infectious virus was then investigated. RPTE/TERT1 cells were once again treated with a concentration range of PF-9366 or DMSO as a control prior to infection, and as before, infected with BKPyV (MOI 1) then washed and media replaced at 1 hpi. At 48 hpi total virus was harvested from each condition and an FFU assay was conducted to determine BKPyV virus titre (FIG. 3B).
For BKPyV infections, RPTE/TERT1, RPTE/TERT1-Cas9 or RPTE/TERT1 MAT2A KO cells were infected with BKPyV at either a multiplicity of infection (MOI) of 5 for growth curves or an MOI of 3 or 1 for all other experiments, diluted in appropriate medium. At 1 hour post infection (hpi) medium was removed, cells were washed twice with phosphate-buffered saline (PBS), and fresh medium was added with or without inhibitors. At 24, 48, 72 or 96 hpi cells were either harvested for western blot, RT qPCR or virus titre by FFU assay, or fixed for immunofluorescence analysis.
FFU assays were used to determine the concentration of infectious BKPyV in experimental samples. RPTE/TERT1 cells were infected with sample dilutions, fixed at 48 hpi in 3% formaldehyde, and immunostained for VP1 expression as described in Evans et al. (Open Biol. 2015 August; 5 (8): 150041).
Example 1: PF-9366 (Sigma-Aldrich) and AG-270 (kindly supplied by Astra Zeneca) were diluted in 100% DMSO. Cells were drug treated at a range of concentrations in REBM supplemented with BulletKit (Lonza) for 3 hours prior to infection. Cells were infected with BK-Dunlop in media and appropriate drug dilution. At 1 hpi infectious media was removed, cells gently washed with PBS and media containing appropriate drug dilutions was added. At 48 hpi cells were either fixed in 3% formaldehyde for microscopy, or harvested by scraping up into fresh drug-free media.
TSG101 inhibitor Ilaprazole (Sigma-Aldrich) was diluted in 100% DMSO. Cells were treated at a range of inhibitor concentrations and combinations, in appropriate media for the cell type used, for either 3 hours prior to infection (HSV-1, Alphavirus and Flavivirus infections) or 1 hour post infection (BKPyV infection).

Assay [2] relates to BKPyV. The assay can be described thus: Western blot of BKPyV viral protein expression (LTAg, VP1) in RPTE/TERT1 cells. It is filed as cell-based, BK polyomavirus. On the procedure: (C)(i) Effect of PF-9366 on viral early and late gene and cellular MAT2A expression: Cells were infected with BKPyV (MOI 3) in media containing appropriate drug concentrations. At 1 hpi infectious media was removed, cells were washed and fresh media with appropriate drug concentrations was added. Cells were harvested at 48 hpi and a western blot performed. Membranes were blotted for viral late gene VP1, LTAg, cellular MAT2A/MAT1A, and tubulin as a loading control.
(iii) Viral gene expression is modulated in response to PF-9366: The density of BKPyV VP1 and LTAg expression were measured, normalized to tubulin loading control (LiCor Image Studio Software), n=3.
as §1, §2
It has previously been noted by Quinlan et al. (Nat Chem Biol. 2017 13 (7): 785-792) that treatment with PF-9366 can increase MAT2A expression as a compensatory mechanism within cells. To investigate this, cells were once again treated with a range of PF-9366 for 3 hours prior to infection (or DMSO treated). Cells were infected with BKPyV (MOI 3), washed at 1 hpi, and fresh drug treated media was added. At 48 hpi cells were harvested and protein expression was analysed by western blotting (FIG. 3C(i)). MAT2A expression was quantified from band intensities, normalised to the tubulin loading control and plotted (FIG. 3C(ii), n=3). A clear increase in the cellular expression of MAT2A was observed, up to an 8-fold increase at 10 μM PF-9366. Western blot analysis was also conducted on early viral gene (LTAg) and late viral gene (VP1) expression (FIG. 3C(iii), n=3).
Cell lysate preparation and western blots were performed as described in Ren et al. (J Gen Virol. 2012 February; 93 (Pt 2): 319-329). Primary antibodies used were ab53977 (VP1), PAb416 (LTAg), sc-166452 (MAT2A/1A), ab110226 (VP16), sc-53070 (ICP0), anti-Zika E Protein, and either anti-GAPDH or anti-tubulin as a loading control, followed by IRDye 680LT-, or IRDye 800CW-conjugated secondary antibodies. Imaging was performed using the LI-COR Odyssey Infrared Imaging system. Quantification was performed using LI-COR Image Studio Software.
In general terms: Immunoblotting shows a protein as a band on a membrane.

In assay [3] the test system is cell proliferation. The settings on record: value used to set treatment concentration; read-out: proliferative IC50; cited from earlier work.
Setting [4] is: 125 nM to 1 μM, dose dependent, MOI 1, 48 hr post infection.

pIC50: −log10 of the molar value.

What is called pIC50 is the negative decadic logarithm of the IC50, by convention in mol/L. As for `COc1ccc(-c2c(Nc3ccccn3)[nH]c3c(C4=CCCCC4)c(-c4ccccc4)nn3c2=O)cc1` [AG-270], the “inhibition of BKPyV replication (total infectious BKPyV, FFU titre)” value in assay [1] (125 nM, 250 nM, 500 nM and 1 μM, added 1 hr post infection, MOI 1, 48 hr post infection) is on record as “significant dose dependent inhibition”. For the same compound, in assay [1] (AG270 1 μM or AZ33 125 nM in conjunction with Ilaprazole (5 μM), compared with MAT2A inhibitor alone), the “potency against BKPyV replication” value was “increased potency”. For the same compound, in assay [2] (setting [4]), the “early viral protein (LTAg) levels (western blot)” value is “reduced” and the “late viral protein (VP1) levels (western blot)” value is “reduced”. For the same compound, the pIC50 in assay [3] was 6.59.

With `CN(C)CCc1nnc2cc(-c3ccccc3)c3cc(Cl)ccc3n12` [PF-9366], the “reduction in infectious virus production” value is given as 60% in assay [1] (2.5 μM (lowest concentration), 48 hpi) and approximately 95% in assay [1] (40 μM (maximum), 48 hpi). The “reduction in viral titre for BKPyV” value in assay [1] (2.5 μM, MOI 1, 48 hpi) is reported as 2-3 fold. Further, the “VP1 expression (western blot)” value in assay [2] (across the concentration range of PF-9366, BKPyV MOI 3, 48 hpi) is reported as “dose-dependent reduction”. Besides, the “expression of LTAg (western blot)” value in assay [2] (two highest concentrations of PF-9366, BKPyV MOI 3, 48 hpi) is listed as “Reduced expression”. In addition, in assay [3], the negative logarithm of the IC50 (pIC50) is 5.00.

The record behind these values is patent US20250221981A1, “MAT2A INHIBITOR AND/OR TSG101 INHIBITOR FOR USE IN ANTIVIRAL THERAPY” (CAMBRIDGE ENTERPRISE LIMITED, priority 2022, published 2025).
